Reference: US10670605B2, “Cysteine reactive probes and uses thereof” (The Scripps Research Institute, priority 2015, dated 2020)
Several values for one entry are separate records, joined by “and”; a condition that tells them apart may be missing. Equal values may be shown once. Blank lines part the entries; values can stand above or below the compound they belong to.

Assays:
Experiment in all cases: Competitive isoTOP-ABPP, cell lysates
Format in all cases: binding
[1] = target: T1, USP28 C171 (Q96RU2) (Homo sapiens, UniProt Q96RU2); settings: for R value (DMSO/fragment) / isoTOP-ABPP ratio, Q96RU2_C171: 500 μM, invitro
T1 sequence (Q96RU2 1-1077): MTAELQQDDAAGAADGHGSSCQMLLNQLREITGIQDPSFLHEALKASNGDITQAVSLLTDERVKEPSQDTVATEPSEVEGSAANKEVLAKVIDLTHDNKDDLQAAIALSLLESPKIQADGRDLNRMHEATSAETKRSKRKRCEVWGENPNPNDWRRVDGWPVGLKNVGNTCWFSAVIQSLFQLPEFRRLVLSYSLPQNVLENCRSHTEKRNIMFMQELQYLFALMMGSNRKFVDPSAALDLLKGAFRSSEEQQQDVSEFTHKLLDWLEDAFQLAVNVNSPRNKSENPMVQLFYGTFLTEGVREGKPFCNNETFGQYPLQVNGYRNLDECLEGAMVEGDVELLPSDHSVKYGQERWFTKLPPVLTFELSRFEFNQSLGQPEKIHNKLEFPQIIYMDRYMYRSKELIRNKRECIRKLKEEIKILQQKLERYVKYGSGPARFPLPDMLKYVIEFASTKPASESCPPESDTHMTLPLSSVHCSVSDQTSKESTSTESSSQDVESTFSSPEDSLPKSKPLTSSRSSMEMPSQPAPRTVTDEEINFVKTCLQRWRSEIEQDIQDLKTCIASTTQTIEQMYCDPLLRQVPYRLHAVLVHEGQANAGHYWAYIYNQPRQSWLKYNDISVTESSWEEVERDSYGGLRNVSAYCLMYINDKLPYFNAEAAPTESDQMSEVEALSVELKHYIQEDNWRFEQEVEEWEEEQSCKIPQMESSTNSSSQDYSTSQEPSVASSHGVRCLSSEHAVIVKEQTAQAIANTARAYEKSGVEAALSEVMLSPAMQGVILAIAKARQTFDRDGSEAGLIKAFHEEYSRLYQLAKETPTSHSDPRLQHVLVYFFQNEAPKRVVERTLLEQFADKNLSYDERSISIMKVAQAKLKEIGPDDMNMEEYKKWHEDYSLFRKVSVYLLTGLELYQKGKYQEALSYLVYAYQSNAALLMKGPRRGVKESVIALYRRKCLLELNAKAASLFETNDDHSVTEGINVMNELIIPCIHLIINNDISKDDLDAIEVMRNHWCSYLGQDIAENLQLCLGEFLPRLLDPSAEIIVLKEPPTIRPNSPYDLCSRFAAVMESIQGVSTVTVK

[2] = target: EZH2 C503 (Q15910) (Homo sapiens, UniProt Q15910); settings: for isoTOP-ABPP reactivity profile ratio, Q15910_C503: in-vitro_ramos_231
[3] = target: RRAGC C358 (Q9HB90) (Homo sapiens, UniProt Q9HB90); settings: for isoTOP-ABPP ratio, Q9HB90_C358: 231; for isoTOP-ABPP reactivity ratio, Q9HB90_C358 / isoTOP-ABPP reactivity profile ratio, Q9HB90_C358: 500 μm
[4] = target: CASP8 C360 (Q14790) (Homo sapiens, UniProt Q14790); settings: for isoTOP-ABPP reactivity ratio, Q14790_C360: 500 μm
Chain of CASP8 C360 (Q14790) (Q14790 whole entry): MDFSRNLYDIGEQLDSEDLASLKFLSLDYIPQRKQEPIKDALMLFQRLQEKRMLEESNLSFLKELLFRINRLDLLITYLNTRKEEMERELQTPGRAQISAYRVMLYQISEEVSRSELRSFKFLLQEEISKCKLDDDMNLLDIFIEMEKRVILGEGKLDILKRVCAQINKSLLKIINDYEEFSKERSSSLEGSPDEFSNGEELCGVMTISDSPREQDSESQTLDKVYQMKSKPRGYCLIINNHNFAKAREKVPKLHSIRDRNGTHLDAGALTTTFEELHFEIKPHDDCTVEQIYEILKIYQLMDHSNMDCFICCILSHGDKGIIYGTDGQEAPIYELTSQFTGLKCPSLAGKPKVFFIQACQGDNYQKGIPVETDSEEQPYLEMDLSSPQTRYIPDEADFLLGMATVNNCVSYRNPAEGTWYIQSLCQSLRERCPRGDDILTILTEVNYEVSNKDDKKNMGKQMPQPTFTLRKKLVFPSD

Chain of RRAGC C358 (Q9HB90) (Q9HB90 2-399 limits assumed): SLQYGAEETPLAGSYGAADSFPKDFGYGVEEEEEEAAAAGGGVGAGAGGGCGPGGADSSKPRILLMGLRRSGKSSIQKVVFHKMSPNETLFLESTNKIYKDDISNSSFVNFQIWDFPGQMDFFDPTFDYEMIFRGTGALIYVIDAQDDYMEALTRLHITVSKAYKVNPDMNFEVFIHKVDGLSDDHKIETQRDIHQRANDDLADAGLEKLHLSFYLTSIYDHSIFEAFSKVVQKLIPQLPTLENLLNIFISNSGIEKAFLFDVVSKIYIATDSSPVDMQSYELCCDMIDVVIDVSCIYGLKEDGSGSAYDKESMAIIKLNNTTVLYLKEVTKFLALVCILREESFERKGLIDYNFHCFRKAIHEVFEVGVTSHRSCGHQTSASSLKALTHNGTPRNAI
Chain of RRAGC C358 (Q9HB90) (Q7L523 whole entry partner): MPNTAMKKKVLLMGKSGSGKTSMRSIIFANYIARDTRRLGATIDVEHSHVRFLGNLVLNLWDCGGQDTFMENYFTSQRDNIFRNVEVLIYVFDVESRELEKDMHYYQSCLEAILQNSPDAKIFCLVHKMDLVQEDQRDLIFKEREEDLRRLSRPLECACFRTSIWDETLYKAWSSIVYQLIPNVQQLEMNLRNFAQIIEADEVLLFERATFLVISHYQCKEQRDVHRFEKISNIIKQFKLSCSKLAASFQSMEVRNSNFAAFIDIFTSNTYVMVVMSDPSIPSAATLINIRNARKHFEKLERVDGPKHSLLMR
Chain of EZH2 C503 (Q15910) (Q15910 whole entry): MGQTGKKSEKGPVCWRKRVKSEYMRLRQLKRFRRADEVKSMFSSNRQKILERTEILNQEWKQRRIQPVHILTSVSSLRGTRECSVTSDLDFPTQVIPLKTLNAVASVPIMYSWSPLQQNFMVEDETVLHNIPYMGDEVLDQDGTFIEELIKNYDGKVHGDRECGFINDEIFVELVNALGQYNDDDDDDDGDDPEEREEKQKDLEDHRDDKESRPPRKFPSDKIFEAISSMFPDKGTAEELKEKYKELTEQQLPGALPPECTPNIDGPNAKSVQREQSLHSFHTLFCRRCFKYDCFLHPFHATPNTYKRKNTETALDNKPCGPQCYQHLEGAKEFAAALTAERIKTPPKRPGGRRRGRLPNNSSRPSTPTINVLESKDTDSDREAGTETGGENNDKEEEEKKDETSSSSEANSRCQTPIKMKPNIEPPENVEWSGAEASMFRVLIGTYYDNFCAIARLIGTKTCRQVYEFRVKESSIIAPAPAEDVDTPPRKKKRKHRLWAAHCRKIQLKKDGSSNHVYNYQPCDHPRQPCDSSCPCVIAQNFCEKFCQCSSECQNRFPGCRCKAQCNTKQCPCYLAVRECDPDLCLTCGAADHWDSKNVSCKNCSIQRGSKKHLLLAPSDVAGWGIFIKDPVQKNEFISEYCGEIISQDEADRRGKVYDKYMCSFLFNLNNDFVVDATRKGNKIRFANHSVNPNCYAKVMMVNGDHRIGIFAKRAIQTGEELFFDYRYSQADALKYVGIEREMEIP
Chain of EZH2 C503 (Q15910) (O75530 whole entry partner): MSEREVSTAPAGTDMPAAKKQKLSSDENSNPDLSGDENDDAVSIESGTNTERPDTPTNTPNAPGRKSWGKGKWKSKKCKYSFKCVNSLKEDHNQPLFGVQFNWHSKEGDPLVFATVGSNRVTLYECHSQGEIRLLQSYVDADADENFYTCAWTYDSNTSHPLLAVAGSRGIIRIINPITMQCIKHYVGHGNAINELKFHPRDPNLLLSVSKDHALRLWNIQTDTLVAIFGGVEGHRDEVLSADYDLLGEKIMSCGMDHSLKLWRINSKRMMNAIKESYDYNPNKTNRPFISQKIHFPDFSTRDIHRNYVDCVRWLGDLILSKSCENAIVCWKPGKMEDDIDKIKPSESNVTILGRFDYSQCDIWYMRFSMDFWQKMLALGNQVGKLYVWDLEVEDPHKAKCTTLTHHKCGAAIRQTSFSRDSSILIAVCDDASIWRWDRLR
Chain of EZH2 C503 (Q15910) (Q15022 whole entry partner): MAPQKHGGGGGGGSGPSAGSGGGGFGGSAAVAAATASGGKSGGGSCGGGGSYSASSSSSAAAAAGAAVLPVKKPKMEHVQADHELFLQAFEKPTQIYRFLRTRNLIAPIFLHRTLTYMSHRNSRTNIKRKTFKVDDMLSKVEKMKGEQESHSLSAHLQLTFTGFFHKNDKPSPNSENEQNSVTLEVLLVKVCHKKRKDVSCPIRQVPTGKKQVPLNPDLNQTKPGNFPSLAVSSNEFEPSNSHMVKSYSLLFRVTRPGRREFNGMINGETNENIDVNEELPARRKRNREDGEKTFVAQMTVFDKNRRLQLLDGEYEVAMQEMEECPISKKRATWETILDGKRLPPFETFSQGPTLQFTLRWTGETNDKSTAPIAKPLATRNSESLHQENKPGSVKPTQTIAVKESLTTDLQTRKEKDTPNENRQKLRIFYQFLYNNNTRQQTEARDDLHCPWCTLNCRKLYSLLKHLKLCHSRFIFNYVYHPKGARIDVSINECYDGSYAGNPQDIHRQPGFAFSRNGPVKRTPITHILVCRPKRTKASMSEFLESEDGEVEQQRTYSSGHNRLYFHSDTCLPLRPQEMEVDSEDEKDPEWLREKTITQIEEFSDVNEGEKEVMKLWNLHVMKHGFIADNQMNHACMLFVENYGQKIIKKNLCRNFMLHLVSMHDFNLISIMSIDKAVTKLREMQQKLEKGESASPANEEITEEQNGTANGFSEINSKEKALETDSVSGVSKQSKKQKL

R value (DMSO/fragment) ([1]; ramos): 1.1
R value (DMSO/fragment) ([2]; 500 μM, invitro, ramos): 2.8
R value (DMSO/fragment) ([3]; 500 μM, in vitro, MDA-MB-231): 20.0
R value (DMSO/fragment) ([3]; 500 μM, invitro, ramos): 20.0
R value (DMSO/fragment) ([4]; 500 μM, in vitro, MDA-MB-231): 9.8
SMILES: COc1ccc2c(c1)CCCN2C(=O)CCl [compound 2]

R value (DMSO/fragment) ([2]; 250 μM, in vitro, Ramos): 1.5
R value (DMSO/fragment) ([3]; 250 μM, in vitro, MDA-MB-231): 1.5
R value (DMSO/fragment) ([4]; 250 μM, in vitro, MDA-MB-231): 12.3
SMILES: COc1ccc(C2CC(c3cccs3)=NN2C(=O)CCl)cc1 (centres unmarked) [compound 4]

isoTOP-ABPP ratio, Q96RU2_C171 [1]; 231: 1.4
isoTOP-ABPP ratio Q14790_C360 ([4]; 500 μM, invitro, 231): 2.8
isoTOP-ABPP ratio Q14790_C360 ([4]; 500 μM, invitro, ramos): 1.5
SMILES: O=C(CCl)N1CCN(S(=O)(=O)c2ccccc2F)CC1 [compound 10]

isoTOP-ABPP ratio, Q96RU2_C171 [1]; 231: 20.0
isoTOP-ABPP ratio, Q15910_C503 ([2]; 500 μM, invitro, ramos): 1.3
isoTOP-ABPP ratio Q14790_C360 ([4]; 500 μM, invitro, 231): 20.0
isoTOP-ABPP ratio Q14790_C360 ([4]; 500 μM, invitro, ramos): 20.0
SMILES: Cn1cc(S(=O)(=O)N2CCOCC2)cc1C(=O)NC(=O)CCl [compound 11]

isoTOP-ABPP ratio (reactivity profile), Q9HB90_C358 ([3]; 500 μm in-vitro ramos_231): 1.1
isoTOP-ABPP ratio (reactivity profile), Q14790_C360 ([4]; 500 μm in-vitro ramos_231): 1.1
SMILES: COc1ccccc1OCCNC(=O)CCl [compound 28]

isoTOP-ABPP ratio (reactivity profile), Q9HB90_C358 ([3]; 500 μm in-vitro ramos): 1.0
isoTOP-ABPP ratio (reactivity profile), Q14790_C360 ([4]; 500 μm in-vitro ramos): 2.0
isoTOP-ABPP reactivity ratio, Q14790_C360 ([4]; in-vitro_ramos): 5.2
SMILES: CCN(CC)c1ccc(S(N)(=O)=O)cc1NC(=O)CCl [compound 30]

isoTOP-ABPP reactivity ratio, Q14790_C360 ([4]; in-vitro_ramos): 1.3
SMILES: O=C(CCl)Nc1ccccc1C1CCCCCC1 [compound 35]

isoTOP-ABPP reactivity ratio, Q9HB90_C358 ([3]; in-vitro_ramos_231): 1.3
isoTOP-ABPP reactivity ratio, Q14790_C360 ([4]; in-vitro_ramos): 0.8
isoTOP-ABPP reactivity ratio, Q14790_C360 ([4]; in-vitro_ramos_231): 1.0
SMILES: Cc1ccc(C=C(C#N)C(=O)NCCN2CCOCC2)cc1 [compound 41]

isoTOP-ABPP reactivity profile ratio, Q15910_C503 ([2]; 500 μm): 20.0
SMILES: COc1cc(NC(=O)CCl)cc(OC)c1 [compound 43]

isoTOP-ABPP reactivity profile ratio, Q15910_C503 ([2]; 500 μm): 0.9
SMILES: O=C(CCl)Nc1ccc(-c2ccccc2)cc1 [compound 52]

Further lines, the compound ahead of its results:

SMILES: O=C(CCl)Nc1cc(C(F)(F)F)cc(C(F)(F)F)c1 [compound 3]
R value (DMSO/fragment) ([1]; ramos): 1.7
R value (DMSO/fragment) ([2]; 500 μM, invitro, ramos): 2.0
R value (DMSO/fragment) ([3]; 500 μM, in vitro, MDA-MB-231): 1.2
R value (DMSO/fragment) ([4]; 500 μM, in vitro, MDA-MB-231): 3.3
R value (DMSO/fragment) ([4]; 500 μM, invitro, ramos): 2.3

SMILES: C=CC(=O)N(c1ccccc1)c1ccc(Br)cc1 [compound 5]
isoTOP-ABPP ratio, Q15910_C503 ([2]; 500 μM, invitro, ramos): 20.0
isoTOP-ABPP ratio Q14790_C360 ([4]; 500 μM, invitro, 231): 1.0
isoTOP-ABPP ratio Q14790_C360 ([4]; 500 μM, invitro, ramos): 1.3

SMILES: CNS(=O)(=O)C=Cc1ccc2c(ccn2Cc2ccccc2)c1 [compound 6]
isoTOP-ABPP ratio, Q96RU2_C171 [1]; 231: 0.8
isoTOP-ABPP ratio, Q15910_C503 ([2]; 500 μM, invitro, 231): 1.8
isoTOP-ABPP ratio, Q9HB90_C358 ([3]; 500 μM, invitro): 1.2

SMILES: O=C(CCl)NCCc1c[nH]c2ccccc12 [compound 13]
isoTOP-ABPP ratio, Q96RU2_C171 ([1]; ramos): 2.4
isoTOP-ABPP ratio, Q15910_C503 ([2]; 500 μM, invitro, ramos): 0.8
isoTOP-ABPP ratio, Q9HB90_C358 ([3]; 500 μM, invitro): 1.5

SMILES: C=CC(=O)N(Cc1cccnc1)c1ccc(Oc2ccccc2)c(C(F)(F)F)c1 [compound 15]
isoTOP-ABPP ratio, Q15910_C503 ([2]; 500 μM, invitro, 231): 0.8
isoTOP-ABPP ratio, Q9HB90_C358 ([3]; 500 μM, invitro): 1.1

SMILES: O=C(CCl)N1CCC(C(O)(c2ccccc2)c2ccccc2)CC1 [compound 20]
isoTOP-ABPP ratio (reactivity profile), Q96RU2_C171 ([1]; 500 μm in-vitro ramos): 2.4
isoTOP-ABPP ratio (reactivity profile), Q14790_C360 ([4]; 500 μm in-vitro ramos): 1.5
isoTOP-ABPP ratio (reactivity profile), Q14790_C360 ([4]; 500 μm in-vitro ramos_231): 1.9

SMILES: O=C(CCl)NC12CC3CC(CC(C3)C1)C2 [compound 21]
isoTOP-ABPP ratio (reactivity profile), Q96RU2_C171 ([1]; 500 μm in-vitro ramos_231): 1.1
isoTOP-ABPP ratio (reactivity profile), Q9HB90_C358 ([3]; 500 μm in-vitro ramos_231): 1.2
isoTOP-ABPP ratio (reactivity profile), Q14790_C360 ([4]; 500 μm in-vitro ramos): 1.9
isoTOP-ABPP ratio (reactivity profile), Q14790_C360 ([4]; 500 μm in-vitro ramos_231): 1.9

SMILES: O=C(CCl)N1CCOCC1 [compound 22]
isoTOP-ABPP ratio (reactivity profile), Q9HB90_C358 ([3]; 500 μm in-vitro ramos_231): 1.7

SMILES: N#C/C(=C\c1cc(C(F)(F)F)cc(C(F)(F)F)c1)C(N)=O [compound 23]
isoTOP-ABPP ratio (reactivity profile), Q96RU2_C171 ([1]; 500 μm in-vitro ramos): 1.2
isoTOP-ABPP ratio (reactivity profile), Q15910_C503 ([2]; 500 μm in-vitro ramos): 2.0
isoTOP-ABPP ratio (reactivity profile), Q14790_C360 ([4]; 500 μm in-vitro ramos): 1.4
isoTOP-ABPP ratio (reactivity profile), Q14790_C360 ([4]; 500 μm in-vitro ramos_231): 1.4

SMILES: CC(Br)C(=O)Nc1cc(C(F)(F)F)cc(C(F)(F)F)c1 (centres unmarked) [compound 24]
isoTOP-ABPP ratio (reactivity profile), Q15910_C503 ([2]; 500 μm in-vitro ramos): 1.3
isoTOP-ABPP ratio (reactivity profile), Q9HB90_C358 ([3]; 500 μm in-vitro ramos): 0.9
isoTOP-ABPP ratio (reactivity profile), Q14790_C360 ([4]; 500 μm in-vitro ramos): 1.4

SMILES: CC(Cl)C(=O)Nc1cc(C(F)(F)F)cc(C(F)(F)F)c1 (centres unmarked) [compound 25]
isoTOP-ABPP ratio (reactivity profile), Q15910_C503 ([2]; 500 μm in-vitro ramos_231): 0.8
isoTOP-ABPP ratio (reactivity profile), Q9HB90_C358 ([3]; 500 μm in-vitro ramos_231): 0.9
isoTOP-ABPP ratio (reactivity profile), Q14790_C360 ([4]; 500 μm in-vitro ramos_231): 1.0

SMILES: CC(C)CCOCCNC(=O)CCl [compound 27]
isoTOP-ABPP ratio (reactivity profile), Q96RU2_C171 ([1]; 500 μm in-vitro ramos_231): 0.9 and 1.2
isoTOP-ABPP ratio (reactivity profile), Q9HB90_C358 ([3]; 500 μm in-vitro ramos_231): 0.3
isoTOP-ABPP ratio (reactivity profile), Q14790_C360 ([4]; 500 μm in-vitro ramos): 1.2
isoTOP-ABPP ratio (reactivity profile), Q14790_C360 ([4]; 500 μm in-vitro ramos_231): 0.8

SMILES: O=C(CCl)N1CCN(CC(=O)N2CCOCC2)CC1 [compound 29]
isoTOP-ABPP ratio (reactivity profile), Q15910_C503 ([2]; 500 μm in-vitro ramos_231): 1.4

SMILES: C=CC(=O)N(Cc1cccnc1)c1cc(C(F)(F)F)cc(C(F)(F)F)c1 [compound 31]
isoTOP-ABPP reactivity ratio, Q9HB90_C358 ([3]; in-vitro_ramos_231): 2.3

SMILES: CC(C)(C)c1cc(NC(=O)CCl)on1 [compound 32]
isoTOP-ABPP reactivity ratio, Q15910_C503 ([2]; 500 μm, in-vitro_ramos): 1.7
isoTOP-ABPP reactivity ratio, Q9HB90_C358 ([3]; in-vitro_ramos): 1.2
isoTOP-ABPP reactivity ratio, Q9HB90_C358 ([3]; in-vitro_ramos_231): 1.9

SMILES: C=CC(=O)N1CCC(c2noc3ccc(F)cc23)CC1 [compound 37]
isoTOP-ABPP reactivity ratio, Q14790_C360 ([4]; in-vitro_ramos): 1.0

SMILES: C=CC(=O)Nc1cc(F)c(N2CCN(C(=O)OC(C)(C)C)CC2)c(F)c1 [compound 38]
isoTOP-ABPP reactivity ratio, Q96RU2_C171 ([1]; 500 μm, in-vitro_ramos_231): 3.3
isoTOP-ABPP reactivity ratio, Q9HB90_C358 ([3]; in-vitro_ramos_231): 1.1
isoTOP-ABPP reactivity ratio, Q14790_C360 ([4]; in-vitro_ramos): 4.1
isoTOP-ABPP reactivity ratio, Q14790_C360 ([4]; in-vitro_ramos_231): 1.0

SMILES: C=CC(=O)N(c1ccccc1)C1CCCCC1 [compound 46]
isoTOP-ABPP reactivity profile ratio, Q96RU2_C171 ([1]; 500 μm, in-vitro_ramos_231): 0.9
isoTOP-ABPP reactivity profile ratio, Q9HB90_C358 ([3]; in-vitro_ramos_231): 1.1

SMILES: C=CC(=O)N1CCC(Cc2ccccc2)CC1 [compound 53]
isoTOP-ABPP reactivity profile ratio, Q9HB90_C358 ([3]; in-vitro_ramos): 0.6
